We go through three sequences from article PMC12250211, “Discovery of Novel Genes Encoding Antimicrobial Peptides from the Pedobacter silvilitoris Genome with Broad-Spectrum Antimicrobial Activity” (International Journal of Molecular Sciences, 2025).

For assay [1], the system named is Staphylococcus aureus (ATCC 6538). The assay can be described thus: Microtiter plate antimicrobial assay (relative growth rate, A600). The assay is classed as cell-based. The settings on record: synthetic peptide; for MIC50: 10 mg/mL stock in distilled water, 10^6 CFU/mL, overnight culture 37 °C, A600, Figure 5B. As to the method:
(§1) The cell-free supernatant of P. silvilitoris or all E. coli DH5α strains containing cloned AMPs was collected after 24 h of culture and filtered through a 0.2-μm syringe (mixed cellulose esters (MCE), Merck, Darmstadt, Germany), and finally the cell-free supernatant was used for the evaluation of antimicrobial activity. The cell-free supernatant from the E. coli DH5α, harboring only the plasmid vector without the PS_AMP genes, was confirmed as a negative control to have very little effect on antimicrobial activities. The synthesized AMPs were suspended at a concentration of 10 mg/mL in distilled water and then used for antimicrobial activity.
(§2) The antimicrobial activities against S. Typhimurium (KCTC12401), E. coli (ATCC 10536), B. cereus (ATCC 11778), S. iniae (KCTC3657), S. aureus (ATCC 6538) and C. albicans (KCTC7122) were analyzed using the microtiter plate method and expressed as minimal inhibition concentration (MIC); the bacteria pre-cultured overnight (O/N) were mixed with 10^6 CFU/mL with the cell-free supernatant or the synthetic peptides, the reaction mixtures were added to the microtiter plate, and finally the reactivity was observed by the O/N culture at 37 °C. […] The relative activity of the treated samples was then expressed as a ratio of their A600 values to that of the control.Relative growth rate = A/B A: the treated sample A600 value B: non-treated (control) A600 value

Assay [2] concerns Escherichia coli (ATCC 10536). The description is as above. It is filed as cell-based. The following applies: synthetic peptide, 10 mg/mL stock in distilled water, 10^6 CFU/mL, overnight culture 37 °C, Figure 5A. As to the method: as §1, §2

Ends that are not written are not given here.

As for DKGLEKTKDNFF [PS_AMP4.1], the MIC50 in assay [1] was 2200 µg/mL.

Turning to GLFDFFKKKDKTTDEQEALDK [PS_AMP4.2], in assay [1] (test strain not printed, AMP4.1 value agrees with the S. aureus value of b25), the “estimated MIC50” value was 3000 µg/mL.

As for LKLKKEQIELLKKIANK [PS_AMP11.1], the MIC50 came out at 1900 µg/mL in assay [2] and 2000 µg/mL in assay [1].
